The target of this assay is T1, Full-length, GST-tagged, human CaMKIIδ (Homo sapiens, UniProt Q13557).
T1 construct: Full-Length, Glutathione-S-Transferase(GST)-Tagged, Human CaMKIIδ was purchased from Carna Biosciences; purchased Carna Biosciences 02-111
Description: CaMKIIδ binding assay (TR-FRET with BODIPY-labeled probe ligand). The procedure, abridged: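 Compounds were tested as 4-fold, eight-point series for 1 hr at room temperature, and IC50 was obtained by logistic fitting against a 3 μM parent-compound control. Signal came from displacement of a 300 nM BODIPY ligand from 0.5 nM GST-CaMKIIδ, detected via Tb-anti-GST in calmodulin/Ca2+ (pH 7.6).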
Background: TR-FRET usually uses a lanthanide donor and a delayed reading to cut background.

The mark [1] stands for this setting: CaMKIIδ binding assay, results of Table 2.
The mark [2] stands for this setting: Table 2, CaMKIIδ binding assay, activity given as class A/B/C.

The source of these data is patent US10543212B2, “Substituted amines for treating cardiac diseases” (Cardurion Pharmaceuticals, LLC, priority 2017, dated 2020).

T1 sequence (Q13557 1-478 isoform Q13557-12): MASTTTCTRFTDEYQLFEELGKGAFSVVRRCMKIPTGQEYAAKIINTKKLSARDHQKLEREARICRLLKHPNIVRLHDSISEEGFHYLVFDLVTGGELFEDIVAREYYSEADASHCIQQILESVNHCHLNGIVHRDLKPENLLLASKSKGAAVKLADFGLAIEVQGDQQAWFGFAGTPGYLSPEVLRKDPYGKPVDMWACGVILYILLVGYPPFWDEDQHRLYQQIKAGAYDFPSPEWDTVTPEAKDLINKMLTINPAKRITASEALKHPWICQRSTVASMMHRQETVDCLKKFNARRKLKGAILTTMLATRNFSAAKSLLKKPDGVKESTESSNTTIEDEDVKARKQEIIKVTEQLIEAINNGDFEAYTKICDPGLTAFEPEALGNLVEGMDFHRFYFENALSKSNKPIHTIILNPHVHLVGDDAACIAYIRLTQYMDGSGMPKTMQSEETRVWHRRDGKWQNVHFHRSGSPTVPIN

Usually IC50 stands for the concentration needed to halve the response being measured. Low values mean greater potency, high ones weaker potency. On to `COc1cc(C2CCCNC2)ccc1Nc1ncc(-c2ccc(C#N)c(O[C@@H](C)Cn3cnnn3)c2)cn1` (stereo partly drawn) [Example 472, 2-(((S)-1-(1H-tetrazol-1-yl)propan-2-yl)oxy)-4-(2-((2-methoxy-4-(piperidin-3-yl)phenyl)amino)pyrimidin-5-yl)benzonitrile], for which the IC50 under setting [1] is less than 10 nM.
For `C[C@@H](Cn1cnnn1)Oc1cc(-c2cnc(Nc3cn(C4CCN(C5CCOCC5)CC4)nc3OCC(F)(F)F)nc2)ccc1C#N` [Example 790, (S)-2-((1-(1H-tetrazol-1-yl)propan-2-yl)oxy)-4-(2-((1-(1-(tetrahydro-2H-pyran-4-yl)piperidin-4-yl)-3-(2,2,2-trifluoroethoxy)-1H-pyrazol-4-yl)amino)pyrimidin-5-yl)benzonitrile], the IC50 under setting [2] was less than 10 nM.
As to `C[C@@H](Cn1cnnn1)Oc1cc(-c2cnc(Nc3cn(C4CC4)nc3OCC(F)(F)F)nc2)ccc1Cl` [Example 774, (S)-5-(3-((1-(1H-tetrazol-1-yl)propan-2-yl)oxy)-4-chlorophenyl)-N-(1-cyclopropyl-3-(2,2,2-trifluoroethoxy)-1H-pyrazol-4-yl)pyrimidin-2-amine], the IC50 under setting [2] is less than 10 nM.
On to `C[C@@H](Cn1cnnn1)Oc1cc(-c2cnc(Nc3cn(C4CNC4)nc3C(F)(F)F)nc2)ccc1Cl` [Example 697, (S)-5-(3-((1-(1H-tetrazol-1-yl)propan-2-yl)oxy)-4-chlorophenyl)-N-(1-(azetidin-3-yl)-3-(trifluoromethyl)-1H-pyrazol-4-yl)pyrimidin-2-amine], for which the IC50 (Table 2, activity class for CaMKIIδ) is less than 10 nM.
Under setting [1], `COc1cc2c(cc1Nc1ncc(-c3ccc(Cl)c(O[C@@H](C)Cn4cnnn4)c3)cn1)CN(C(=O)C(C)(C)O)CC2` [Example 521, (S)-1-(7-((5-(3-((1-(1H-tetrazol-1-yl)propan-2-yl)oxy)-4-chlorophenyl)pyrimidin-2-yl)amino)-6-methoxy-3,4-dihydroisoquinolin-2(1H)-yl)-2-hydroxy-2-methylpropan-1-one] had an IC50 of 10 to 100 nM.
Same read-out and setting: the same measure for `COc1ccc(N2CCN(C3COC3)CC2)cc1Nc1ncc(-c2ccc(Cl)c(O[C@@H](C)Cn3cnnn3)c2)cn1` [Example 576, (S)-5-(3-((1-(1H-tetrazol-1-yl)propan-2-yl)oxy)-4-chlorophenyl)-N-(2-methoxy-5-(4-(oxetan-3-yl)piperazin-1-yl)phenyl)pyrimidin-2-amine]: 10 to 100 nM.
With `C[C@@H](Cn1cnnn1)Oc1cc(-c2cnc(Nc3cn(CC4(O)CCN(C5CCOCC5)CC4)nc3OCC(F)(F)F)nc2)ccc1Cl` [Example 909, (S)-4-((4-((5-(3-((1-(1H-tetrazol-1-yl)propan-2-yl)oxy)-4-chlorophenyl)pyrimidin-2-yl)amino)-3-(2,2,2-trifluoroethoxy)-1H-pyrazol-1-yl)methyl)-1-(tetrahydro-2H-pyran-4-yl)piperidin-4-ol], the IC50 (CaMKIIδ binding assay, activity class per Table 2) is less than 10 nM.
The compound `COC[C@@H](C)n1cc(Nc2ncc(-c3ccc(Cl)c(O[C@@H](C)Cn4cnnn4)c3)cn2)c(OCC(F)(F)F)n1` [Example 796, 5-(3-(((S)-1-(1H-tetrazol-1-yl)propan-2-yl)oxy)-4-chlorophenyl)-N-(1-((R)-1-methoxypropan-2-yl)-3-(2,2,2-trifluoroethoxy)-1H-pyrazol-4-yl)pyrimidin-2-amine] had an IC50 under setting [2] of less than 10 nM.
The same measure, in the same setting: the same measure for `C[C@@H](Cn1cnnn1)Oc1cc(-c2cnc(Nc3cn(CC(F)(F)F)nc3OCC(F)(F)F)nc2)ccc1Cl` [Example 756, (S)-5-(3-((1-(1H-tetrazol-1-yl)propan-2-yl)oxy)-4-chlorophenyl)-N-(3-(2,2,2-trifluoroethoxy)-1-(2,2,2-trifluoroethyl)-1H-pyrazol-4-yl)pyrimidin-2-amine]: 10 to 100 nM.
Consider `C[C@@H](Cn1cnnn1)Oc1cc(-c2cnc(Nc3cc4c(cc3Cl)CCNCC4)nc2)ccc1Cl` [Example 507, (S)-N-(5-(3-((1-(1H-tetrazol-1-yl)propan-2-yl)oxy)-4-chlorophenyl)pyrimidin-2-yl)-8-chloro-2,3,4,5-tetrahydro-1H-benzo[d]azepin-7-amine], for which the IC50 under setting [1] is less than 10 nM.
